# Key:
# P. aeruginosa C0307 [1] = experiment: Checkerboard assay of 83 with kanamycin A; assay type: cell-based; settings: for checkerboard well reading (growth): Supp. Figure 3 B
# APH(3’)-Ic = assay type: biochemical, A. baumannii; settings: 100 µM of 83
# APH(3’)-Ib = biological target: T1, APH(3’)-Ib (Escherichia coli, UniProt P14509); experiment: biochemical; set-up: species or system E. coli and K. pneumoniae
# T1 construct: His-tag (inferred from HisTrap purification); made in house; host or cells: E. coli BL21
# P. aeruginosa C0307 [2] = experiment: Bacterial growth kinetics over 24 h; assay type: cell-based
# APH(2”)-IVa = APH(2”)-IVa (Enterococcus casseliflavus, UniProt O68183); experiment: IC50 by HPLC quantification of ATP and ADP; assay type: biochemical, E. casseliflavus
# APH(2”)-IVa, sequence (O68183 entry or part of it): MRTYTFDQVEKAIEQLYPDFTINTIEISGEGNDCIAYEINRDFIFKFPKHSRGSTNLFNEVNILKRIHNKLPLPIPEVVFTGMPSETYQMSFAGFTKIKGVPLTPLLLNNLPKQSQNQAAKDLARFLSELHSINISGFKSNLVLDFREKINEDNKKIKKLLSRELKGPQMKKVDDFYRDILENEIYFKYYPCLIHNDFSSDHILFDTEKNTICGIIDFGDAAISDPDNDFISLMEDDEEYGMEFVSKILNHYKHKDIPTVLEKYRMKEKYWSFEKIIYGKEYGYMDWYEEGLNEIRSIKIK
# Method: The reaction mixture consists of the APH and its substrates, as well as a potential inhibitor for inhibition measurements. Reactions were initiated by adding the ATP solution supplemented or not with the inhibitor, in a thermostated beaker containing the APH. […] The reaction was stopped at several time points by adding 80 µL of the enzymatic reaction mixture from the beaker to 40 µL of 10% perchloric acid (PCA) in an Eppendorf tube. Samples were then centrifuged for 30 min at 12750 rpm and 8 °C. 100 µL of the supernatant was then mixed with 900 µL of mobile phase (250 mM NaH2PO4, 50% Acetonitrile, pH 5.5) supplemented with KOH to readjust the pH to 5.5 before injection. […] 100 µL of samples were injected on a SAX PartiSphere column (AIT France) at a flow rate of 1 mL min^−1. ATP and ADP peaks were integrated, and the area under the peaks was calculated using OpenLab CDS software (v. ChemStation, Agilent). The kss values were then measured using linear regression in GraFit software and IC50 determined by fitting with a hyperbola the percentage of inhibition as a function of inhibitor concentration. The standard error of the IC50 value was determined in the GraFit software based on the fitting of the experimental data.
# T1 sequence (P14509 whole entry): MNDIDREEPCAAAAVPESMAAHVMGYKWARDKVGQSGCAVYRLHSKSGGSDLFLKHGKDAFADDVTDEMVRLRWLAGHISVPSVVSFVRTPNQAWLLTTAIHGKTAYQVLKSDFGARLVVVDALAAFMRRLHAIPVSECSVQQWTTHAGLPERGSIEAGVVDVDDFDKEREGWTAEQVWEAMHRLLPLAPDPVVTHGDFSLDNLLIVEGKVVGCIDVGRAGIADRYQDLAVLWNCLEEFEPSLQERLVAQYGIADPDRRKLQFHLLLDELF
smiles,measurement,setting,value
Clc1cnc2[nH]ccc2c1-c1ccn[nH]1 [Compound 83],checkerboard well reading (growth),"P. aeruginosa C0307 [1]; 83 2 µg.mL-1, kanamycin A 8 µg.mL-1",1.140
same,checkerboard well reading (growth),"P. aeruginosa C0307 [1]; 83 2 µg.mL-1, kanamycin A 16 µg.mL-1",1.101
same,checkerboard well reading (growth),"P. aeruginosa C0307 [1]; 83 2 µg.mL-1, kanamycin A 32 µg.mL-1",1.112
same,checkerboard well reading (growth),"P. aeruginosa C0307 [1]; 83 2 µg.mL-1, kanamycin A 64 µg.mL-1",0.172
same,checkerboard well reading (growth),"P. aeruginosa C0307 [1]; 83 2 µg.mL-1, kanamycin A 128 µg.mL-1",0.038
same,checkerboard well reading (growth),"P. aeruginosa C0307 [1]; 83 4 µg.mL-1, kanamycin A 0 µg.mL-1",1.132
same,checkerboard well reading (growth),"P. aeruginosa C0307 [1]; 83 4 µg.mL-1, kanamycin A 2 µg.mL-1",1.139
same,checkerboard well reading (growth),"P. aeruginosa C0307 [1]; 83 4 µg.mL-1, kanamycin A 4 µg.mL-1",1.161
same,checkerboard well reading (growth),"P. aeruginosa C0307 [1]; 83 4 µg.mL-1, kanamycin A 8 µg.mL-1",1.123
same,checkerboard well reading (growth),"P. aeruginosa C0307 [1]; 83 4 µg.mL-1, kanamycin A 16 µg.mL-1",1.163
same,checkerboard well reading (growth),"P. aeruginosa C0307 [1]; 83 4 µg.mL-1, kanamycin A 32 µg.mL-1",1.149
same,checkerboard well reading (growth),"P. aeruginosa C0307 [1]; 83 4 µg.mL-1, kanamycin A 64 µg.mL-1",0.250
same,checkerboard well reading (growth),"P. aeruginosa C0307 [1]; 83 4 µg.mL-1, kanamycin A 128 µg.mL-1",0.041
same,checkerboard well reading (growth),"P. aeruginosa C0307 [1]; 83 8 µg.mL-1, kanamycin A 0 µg.mL-1",1.480
same,checkerboard well reading (growth),"P. aeruginosa C0307 [1]; 83 8 µg.mL-1, kanamycin A 2 µg.mL-1",1.120
same,checkerboard well reading (growth),"P. aeruginosa C0307 [1]; 83 8 µg.mL-1, kanamycin A 4 µg.mL-1",1.107
same,checkerboard well reading (growth),"P. aeruginosa C0307 [1]; 83 8 µg.mL-1, kanamycin A 8 µg.mL-1",1.138
same,checkerboard well reading (growth),"P. aeruginosa C0307 [1]; 83 8 µg.mL-1, kanamycin A 16 µg.mL-1",1.202
same,checkerboard well reading (growth),"P. aeruginosa C0307 [1]; 83 8 µg.mL-1, kanamycin A 32 µg.mL-1",1.141
same,checkerboard well reading (growth),"P. aeruginosa C0307 [1]; 83 8 µg.mL-1, kanamycin A 64 µg.mL-1",0.170
same,checkerboard well reading (growth),"P. aeruginosa C0307 [1]; 83 8 µg.mL-1, kanamycin A 128 µg.mL-1",0.040
same,checkerboard well reading (growth),"P. aeruginosa C0307 [1]; 83 16 µg.mL-1, kanamycin A 0 µg.mL-1",1.350
same,checkerboard well reading (growth),"P. aeruginosa C0307 [1]; 83 16 µg.mL-1, kanamycin A 2 µg.mL-1",1.145
same,checkerboard well reading (growth),"P. aeruginosa C0307 [1]; 83 16 µg.mL-1, kanamycin A 4 µg.mL-1",1.177
same,checkerboard well reading (growth),"P. aeruginosa C0307 [1]; 83 16 µg.mL-1, kanamycin A 8 µg.mL-1",1.181
same,checkerboard well reading (growth),"P. aeruginosa C0307 [1]; 83 16 µg.mL-1, kanamycin A 16 µg.mL-1",1.121
same,checkerboard well reading (growth),"P. aeruginosa C0307 [1]; 83 16 µg.mL-1, kanamycin A 32 µg.mL-1",1.161
same,checkerboard well reading (growth),"P. aeruginosa C0307 [1]; 83 16 µg.mL-1, kanamycin A 64 µg.mL-1",0.077
same,checkerboard well reading (growth),"P. aeruginosa C0307 [1]; 83 16 µg.mL-1, kanamycin A 128 µg.mL-1",0.041
same,checkerboard well reading (growth),"P. aeruginosa C0307 [1]; 83 32 µg.mL-1, kanamycin A 0 µg.mL-1",1.542
same,checkerboard well reading (growth),"P. aeruginosa C0307 [1]; 83 32 µg.mL-1, kanamycin A 2 µg.mL-1",1.314
same,checkerboard well reading (growth),"P. aeruginosa C0307 [1]; 83 32 µg.mL-1, kanamycin A 4 µg.mL-1",1.373
same,checkerboard well reading (growth),"P. aeruginosa C0307 [1]; 83 32 µg.mL-1, kanamycin A 8 µg.mL-1",1.519
same,checkerboard well reading (growth),"P. aeruginosa C0307 [1]; 83 32 µg.mL-1, kanamycin A 16 µg.mL-1",1.301
same,checkerboard well reading (growth),"P. aeruginosa C0307 [1]; 83 32 µg.mL-1, kanamycin A 32 µg.mL-1",1.153
same,checkerboard well reading (growth),"P. aeruginosa C0307 [1]; 83 32 µg.mL-1, kanamycin A 64 µg.mL-1",0.041
same,checkerboard well reading (growth),"P. aeruginosa C0307 [1]; 83 32 µg.mL-1, kanamycin A 128 µg.mL-1",0.042
same,checkerboard well reading (growth),"P. aeruginosa C0307 [1]; 83 64 µg.mL-1, kanamycin A 0 µg.mL-1",1.274
same,checkerboard well reading (growth),"P. aeruginosa C0307 [1]; 83 64 µg.mL-1, kanamycin A 2 µg.mL-1",1.335
same,checkerboard well reading (growth),"P. aeruginosa C0307 [1]; 83 64 µg.mL-1, kanamycin A 4 µg.mL-1",1.176
same,checkerboard well reading (growth),"P. aeruginosa C0307 [1]; 83 64 µg.mL-1, kanamycin A 8 µg.mL-1",1.404
same,checkerboard well reading (growth),"P. aeruginosa C0307 [1]; 83 64 µg.mL-1, kanamycin A 16 µg.mL-1",1.087
same,checkerboard well reading (growth),"P. aeruginosa C0307 [1]; 83 64 µg.mL-1, kanamycin A 32 µg.mL-1",0.939
same,checkerboard well reading (growth),"P. aeruginosa C0307 [1]; 83 64 µg.mL-1, kanamycin A 64 µg.mL-1",0.044
same,checkerboard well reading (growth),"P. aeruginosa C0307 [1]; 83 64 µg.mL-1, kanamycin A 128 µg.mL-1",0.044
same,checkerboard well reading (growth),"P. aeruginosa C0307 [1]; 83 128 µg.mL-1, kanamycin A 0 µg.mL-1",1.377
same,checkerboard well reading (growth),"P. aeruginosa C0307 [1]; 83 128 µg.mL-1, kanamycin A 2 µg.mL-1",1.277
same,checkerboard well reading (growth),"P. aeruginosa C0307 [1]; 83 128 µg.mL-1, kanamycin A 4 µg.mL-1",1.324
same,checkerboard well reading (growth),"P. aeruginosa C0307 [1]; 83 128 µg.mL-1, kanamycin A 8 µg.mL-1",1.318
same,checkerboard well reading (growth),"P. aeruginosa C0307 [1]; 83 128 µg.mL-1, kanamycin A 16 µg.mL-1",0.963
same,checkerboard well reading (growth),"P. aeruginosa C0307 [1]; 83 128 µg.mL-1, kanamycin A 32 µg.mL-1",0.366
same,checkerboard well reading (growth),"P. aeruginosa C0307 [1]; 83 128 µg.mL-1, kanamycin A 64 µg.mL-1",0.038
same,checkerboard well reading (growth),"P. aeruginosa C0307 [1]; 83 128 µg.mL-1, kanamycin A 128 µg.mL-1",0.043
same,Impact of 83 alone on bacterial growth,"P. aeruginosa C0307 [1]; absence of antibiotics, 83 from 0 to 128 µg mL^−1 (585 µM)",no impact on bacterial growth
same,Inhibition (%),APH(3’)-Ic,35%
same,inhibition at 100 µM,APH(3’)-Ib,55%
same,Delay of the onset of growth,"P. aeruginosa C0307 [2]; 8 µg mL^−1 kanamycin A, 83 at 500 µM",around 6 h
same,Extension of latency,"P. aeruginosa C0307 [2]; 16 µg mL^−1 kanamycin A, 500 µM 83",12 h
same,Growth,"P. aeruginosa C0307 [2]; 32 µg mL^−1 kanamycin A, 500 µM 83, 24 h of incubation",growth did not begin after 24 h of incubation
same,Toxicity of 83 alone on bacteria,"P. aeruginosa C0307 [2]; up to 500 µM (109 µg mL^−1), no kanamycin A, 24 h",no toxicity
same,IC50,APH(2”)-IVa,840 ± 130 nM

# From PMC12749166, “Fragment-based drug design of a bacterial kinase inhibitor capable of increasing the antibiotic sensitivity of clinical isolates” (Communications Chemistry, 2025)
